Measured values from publication PMC9400670, “Establishing the selective phospholipid membrane coordination, permeation and lysis properties for a series of ‘druggable’ supramolecular self-associating antimicrobial amphiphiles” (Chemical Science, 2022).

Assay: Mouse plasma protein binding (rapid equilibrium dialysis) with plasma stability
Assay type: in vitro ADME
Conditions: for recovery at 4 h, 2 µM: mouse plasma, read-out: Recovery (PPB assay); for fraction unbound at 4 h, 2 µM: PPB
Procedure: page 7: Section 4: DMPK Methods and Further Discussion Materials used for DMPK studies: Sprague Dawley rat liver microsomes (male, 771 donors, Lot 1910100), CD-1 mouse liver microsomes (male, 6424 donors, Lot 2010017) and human liver microsomes (mixed gender,50 donors, Lot 1810003) were purchased from Sekisui Xenotech (Kansas City, USA). Microsomal incubations: SSA 1-6 and 10 (final concentration 1 µM) were pre-incubated for 10 min in mouse, rat, or human liver microsomes (final concentration 0.5 mg/mL prepared in 100 mM potassium phosphate buffered saline (PBS)) at 37°C. The reaction was initiated with the addition of the cofactor, NADPH-generating system. The NADPH-generating system consisted of NADP (1.3 mM, pH 7.4), glucose-6-phosphate (3.3 mM, pH 7.4), glucose-6-phosphate dehydrogenase (0.4 unit/mL) and MgCl2 (3.3 mM). The reaction was allowed to proceed for 45 min. At 0, 5, 10, 15, 30, and 45 min aliquots were sampled and quenched in ice cold acetonitrile with internal standard. Incubations were conducted in singlicate; control incubations (substituting PBS for NADPH) were conducted simultaneously. All control incubations were within acceptance criteria in mouse, rat, and human microsomes confirming stability was acceptable over 45 minutes in the absence of co-factor. Protein Binding studies: The fraction unbound in mouse plasma (BioIVT, Frankfurt Am Main, Germany) of SSA 1-6 and 10 were measured using a Rapid Equilibrium Dialysis device (Thermo Fisher Scientific, Loughborough, UK). Mouse plasma containing 2 µM of SSA 1-6 and 10 were dialysed against 100 mM PBS for 4h at 37°C at 5% CO2. Samples were removed, matrix matched and quenched with acetonitrile containing internal standard; further processing is described in: Sample preparation and liquid chromatography-mass spectrometry analysis. Caco-2 Permeability studies: The permeability assay for SSA 1-6 and 10 was performed at Cyprotex Discovery Limited (Macclesfield, UK) and analysed at Cancer Research Horizons. SSA 1-6 and 10 were incubated at a final concentration of 10 uM with human intestinal Caco-2 cells at 37°C, 5% CO2 with a relative humidity of 95%. After 120 minutes the apical compartment inserts and the companion plates were separated, and the apical and basolateral samples were transferred. Incubations were conducted in duplicate and the fluorescent membrane integrity marker; Lucifer Yellow was co- incubated with the SSA compounds at the start of the assay. Compounds of known permeability were used as controls and were within acceptance criteria. Further processing is described in: Sample preparation and liquid chromatography-mass spectrometry analysis. Sample preparation and liquid chromatography-mass spectrometry analysis: All samples were centrifuged at 3500 rpm at 4°C for 10 min to precipitate protein and enable sampling of supernatant prior to appropriate dilution for liquid chromatography-mass spectrometry (LC-MS/MS analysis). For the purpose of CLINT determination, samples were analysed using a Waters I-Class ultra-high- performance liquid chromatography (UHPLC) system coupled to a Waters Xevo TQ-XS mass spectrometer (Waters, Elstree, UK). Separation of analytes was achieved using an Accucore Vanquish C18+ column (1.5 µm, 50 x 2.1 mm) (Thermo Fisher Scientific, Hemel Hempstead) at a temperature of 40°C and a binary mobile phase gradient at a flow rate of 0.4 mL/min. Initial LC conditions comprised 95% solvent A (0.1% formic acid + 5 mM ammonium acetate in water), 5% solvent B (0.1% formic acid + 5 mM ammonium acetate in acetonitrile); this was ramped to 90% B at 5 min, and then immediately returned to initial conditions and held for the remaining 0.5 min of the method. Sample analysis was by electrospray ionisation combined with multiple reaction monitoring in negative ion mode. […]

[1] = mouse, % SSA recovered from the assay after 4 hours

Plasma stability (mouse, 4 h, 2 µM)	recovery at 4 h, 2 µM [1]	fraction unbound at 4 h, 2 µM (mouse, plasma)	PPB class (mouse, plasma)	Recovery (PPB assay) (% SSA recovered from the assay after 4 hours)	PPB (mouse, plasma, 4 h, 2 µM)	SMILES
93%	79%	0.166	–	–	–	O=C(NCCCS(=O)(=O)O)Nc1ccc(C(F)(F)F)cc1 [SSA 2]
90%	101%	0.007	very high	–	–	Cc1ccc2nc(-c3ccc(NC(=O)NCS(=O)(=O)O)cc3)sc2c1 [SSA 6]
92%	109%	< 0.003	very high	–	–	O=C(NCS(=O)(=O)O)Nc1ccccc1-c1nc2ccccc2s1 [SSA 5]
96%	86%	0.328	low	–	–	O=C(O)CNC(=O)Nc1ccc(C(F)(F)F)cc1 [SSA 4]
94%	91%	0.25	low	–	–	O=C(NCS(=O)(=O)O)Nc1ccc(C(F)(F)F)cc1 [SSA 1]
89%	94%	0.007	very high	–	–	Cc1ccc2nc(-c3ccc(NC(=O)NCCCS(=O)(=O)O)cc3)sc2c1 [SSA 10]
89%	–	–	–	80%	73.8%	O=C(NCS(=O)(=O)O)Nc1ccc(C(F)(F)F)cc1 [SSA 3]
